Earlier results on 14 substances are cited in EP4473960A1, “VACCINE FORMULATION COMPRISING A SURFACTANT THAT DOES NOT COMPRISE AN ESTER BOND” (Vaxxinova Nederland BV, priority 2023, dated 2024).

Like-named read-outs stand apart in the source and are kept apart here.

Where [1] appears, read: Table 3A, HLB values of surfactants discussed.
Setting [2] is: Table 2, surfactants without ester bond.

With Sorbitan monooleate [Span 80], the “Hydrophilic-Lipophilic Balance (HLB)” value is given as 4,3. For the same substance, the HLB under setting [1] is on record as 4,3.
With Sorbitan tristearate [Span 65], the HLB under setting [1] is 2,2.
Consider “Polyoxyethylen (2) stearylether [Brij 72]”, for which the HLB is, setting by setting: under setting [2], 4,9; under setting [1], 4,9.
Take Polyoxyethylen (9) laurylether [Thesit]: the HLB under setting [2] was 11.2.
Turning to Sorbitan stearate [Span 60], the HLB under setting [1] was 4,7.
Take “Polyoxyethylen (25) cetylstearylether [Cremophor A25]”: the HLB is, setting by setting: under setting [2], 15-17; under setting [1], 15-17.
For Polyoxyethylen (10) tridecylether, the HLB under setting [2] is 13.7.
With “Polyoxyethylen (4) laurylether [Brij 30]”, the HLB is, setting by setting: under setting [2], 9,7; under setting [1], 9,7.
Consider Polyoxyethylen (2) oleylether [Brij 92], for which the HLB is 4,9 under setting [2] and 4,9 under setting [1].
As for Polyoxyethylen (2) cetylether [Brij 52], the HLB reads like this: under setting [2], 5,3; under setting [1], 5,3.
Turning to “Polyoxyethylen (20) cetylstearylether [Cremophor A20]”, under setting [2], the HLB is 14-16.
In the case of Sorbitan palmitate [Span 40], the HLB under setting [1] was 6.7.
On to “Polyoxyethylen (6) cetylstearylether [Cremophor A6]”, for which the HLB is 10-12 under setting [2] and 10 - 12 under setting [1].
With Polyoxyethylen (10) monodecylether, the HLB under setting [2] is 14.6.
